According to patent publication US7592160B2, “Processes for producing isomaltose and isomaltitol and use thereof” (Kabushiki Kaisha Hayashibara Seibutsu Kagaku Kenkyujo, priority 2001, dated 2009):

How the values were obtained:
[1] = system: α-isomaltosylglucosaccharide-forming enzyme; experiment: Action on saccharides as substrates (TLC), enzyme of C9 strain; assay type: biochemical, Bacillus globisporus C9 strain; set-up: key: −: it showed no change; +: it showed a slight reduction of the color spot of the substrate and the formation of other reaction product; ++: it showed a high reduction of the color spot of the substrate and the formation of other reaction product; +++: it showed a substantial disappearance of the substrate spot and the formation of other reaction product; conditions: two units/g substrate, substrate 2% (w/v), 30° C., pH 6.0, 24 hours
Excerpt: (§1) To examine the saccharides in the supernatant, they were separated by developing twice on silica gel thin-layer chromatography (abbreviated as “TLC” hereinafter) using, as a developer, a mixture solution of n-butanol, pyridine, and water (=6:4:1 by volume), and, as a thin-layer plate, “[…]™ 60”, an aluminum plate (20×20 cm) for TLC commercialized by Merck & Co., Inc., Rahway, USA. The coloration of the separated total sugars by the sulfuric acid-methanol method and that of the reducing saccharides by the diphenylamine-aniline method detected a non-reducing saccharide positive at an Rf value of about 0.31 on the former detection method but negative on the latter detection method.
(§2) It was tested whether any saccharides can be used as substrates for α-isomaltosylglucosaccharide-forming enzyme. For the purpose, a solution of maltose, maltotriose, maltotetraose, maltopentaose, maltohexaose, maltoheptaose, isomaltose, isomaltotriose, panose, isopanose, α,α-trehalose, kojibiose, nigerose, neotrehalose, cellobiose, gentibiose, maltitol, maltotriitol, lactose, sucrose, erlose, selaginose, maltosyl glucoside, or isomaltosyl glucoside was prepared.
(§3) To each of the above solutions was added two units/g substrate of a purified specimen of α-isomaltosylglucosaccharide-forming enzyme from either Bacillus globisporus C9 strain obtained by the method in Experiment 4-2, Bacillus globisporus C11 strain obtained by the method in Experiment 7-2, Bacillus globisporus N75 strain obtained by the method in Experiment 11-2, or Arthrobacter globiformis A19 strain obtained by the method in Experiment 15-2, and the resulting each solution was adjusted to give a substrate concentration of 2% (w/v) and incubated at 30° C. and pH 6.0 for 24 hours, except for using pH 8.4 for the enzyme from Arthrobacter globiformis A19 strain. The enzyme solutions before and after the enzymatic reactions were respectively analyzed on TLC disclosed in Experiment 1 to confirm whether the enzymes acted on these substrates.

[2] = system: α-isomaltosylglucosaccharide-forming enzyme; experiment: Transfer-acceptor specificity, enzyme of C9 strain; assay type: biochemical, Bacillus globisporus C9 strain; conditions: acceptor 1.6%, PINE-DEX #100 donor 4%, one unit/g donor, 30° C., pH 6.0, 24 hours
In short: (§4)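 Acceptor saccharides at 1.6% with partial starch hydrolyzate donor at 4% and purified enzyme at 1 unit/g donor, d.s.b., 30 °C, 24 h, pH 6.0 (pH 8.4 for A19 enzyme). Transfer products of mono- and disaccharide acceptors analysed by GLC, of trisaccharide acceptors by HPLC with refractometer detection.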

[3] = system: α-isomaltosylglucosaccharide-forming enzyme; experiment: Transfer-acceptor specificity, enzyme of N75 strain; assay type: biochemical, Bacillus globisporus N75 strain; conditions: acceptor 1.6%, PINE-DEX #100 donor 4%, one unit/g donor, 30° C., pH 6.0, 24 hours
In short: as §4

[4] = system: α-isomaltosylglucosaccharide-forming enzyme; experiment: Action on saccharides as substrates (TLC), enzyme of N75 strain; assay type: biochemical, Bacillus globisporus N75 strain; set-up: key: −: it showed no change; +: it showed a slight reduction of the color spot of the substrate and the formation of other reaction product; ++: it showed a high reduction of the color spot of the substrate and the formation of other reaction product; +++: it showed a substantial disappearance of the substrate spot and the formation of other reaction product; conditions: two units/g substrate, substrate 2% (w/v), 30° C., pH 6.0, 24 hours
Excerpt: as §1, §2, §3

[5] = system: α-isomaltosylglucosaccharide-forming enzyme; experiment: Transfer-acceptor specificity, enzyme of A19 strain; assay type: biochemical, Arthrobacter globiformis A19 strain; conditions: acceptor 1.6%, PINE-DEX #100 donor 4%, one unit/g donor, 30° C., pH 8.4, 24 hours
In short: as §4

[6] = system: α-isomaltosylglucosaccharide-forming enzyme; experiment: Action on saccharides as substrates (TLC), enzyme of C11 strain; assay type: biochemical, Bacillus globisporus C11 strain; set-up: key: −: it showed no change; +: it showed a slight reduction of the color spot of the substrate and the formation of other reaction product; ++: it showed a high reduction of the color spot of the substrate and the formation of other reaction product; +++: it showed a substantial disappearance of the substrate spot and the formation of other reaction product; conditions: two units/g substrate, substrate 2% (w/v), 30° C., pH 6.0, 24 hours
Excerpt: as §1, §2, §3

[7] = system: α-isomaltosylglucosaccharide-forming enzyme; experiment: Action on saccharides as substrates (TLC), enzyme of A19 strain; assay type: biochemical, Arthrobacter globiformis A19 strain; set-up: key: −: it showed no change; +: it showed a slight reduction of the color spot of the substrate and the formation of other reaction product; ++: it showed a high reduction of the color spot of the substrate and the formation of other reaction product; +++: it showed a substantial disappearance of the substrate spot and the formation of other reaction product; conditions: two units/g substrate, substrate 2% (w/v), 30° C., pH 8.4, 24 hours
Excerpt: as §1, §2, §3

[8] = system: α-isomaltosylglucosaccharide-forming enzyme; experiment: Transfer-acceptor specificity, enzyme of C11 strain; assay type: biochemical, Bacillus globisporus C11 strain; conditions: acceptor 1.6%, PINE-DEX #100 donor 4%, one unit/g donor, 30° C., pH 6.0, 24 hours
In short: as §4

Row | Compound | Enzymatic action, Enzyme of C9 strain [1] | Product of transferring reaction, Enzyme of C9 strain [2] | Product of transferring reaction, Enzyme of N75 strain [3] | Enzymatic action, Enzyme of N75 strain [4] | Product of transferring reaction, Enzyme of A19 strain [5] | Enzymatic action, Enzyme of C11 strain [6] | Enzymatic action, Enzyme of A19 strain [7] | Product of transferring reaction, Enzyme of C11 strain [8]
1 | OC[C@@H](O)[C@@H](O[C@H]1O[C@H](CO)[C@@H](O)[C@H](O)[C@H]1O)[C@H](O)[C@@H](O)CO [Maltitol, maltitol] | − | ++ (a saccharide-transferred product was detected in an amount over ten percent through transfer reaction to acceptor) | ++ (a saccharide-transferred product was detected in an amount over ten percent through transfer reaction to acceptor) | − | ++ (a saccharide-transferred product was detected in an amount over ten percent through transfer reaction to acceptor) | − | − | ++ (a saccharide-transferred product was detected in an amount over ten percent through transfer reaction to acceptor)
2 | OC[C@H]1O[C@H](OC[C@H]2O[C@H](OC[C@H]3OC(O)[C@H](O)[C@@H](O)[C@@H]3O)[C@H](O)[C@@H](O)[C@@H]2O)[C@H](O)[C@@H](O)[C@@H]1O (stereo partly shown) [Isomaltotriose, isomaltotriose] | − | ++ (a saccharide-transferred product was detected in an amount over ten percent through transfer reaction to acceptor) | ++ (a saccharide-transferred product was detected in an amount over ten percent through transfer reaction to acceptor) | − | ± (a saccharide-transferred product was detected in an amount less than one percent through transfer reaction to acceptor) | − | − | ++ (a saccharide-transferred product was detected in an amount over ten percent through transfer reaction to acceptor)
3 | OC[C@H]1O[C@@H](O[C@H]2[C@H](O)[C@@H](O)C(O)O[C@@H]2CO)[C@H](O)[C@@H](O)[C@H]1O (stereo partly shown) [Lactose, lactose] | − | ++ (a saccharide-transferred product was detected in an amount over ten percent through transfer reaction to acceptor) | ++ (a saccharide-transferred product was detected in an amount over ten percent through transfer reaction to acceptor) | − | ++ (a saccharide-transferred product was detected in an amount over ten percent through transfer reaction to acceptor) | − | − | ++ (a saccharide-transferred product was detected in an amount over ten percent through transfer reaction to acceptor)
4 | OC[C@H]1O[C@H](OC[C@H]2OC(O)[C@H](O)[C@@H](O)[C@@H]2O)[C@H](O)[C@@H](O)[C@@H]1O (stereo partly shown) [Isomaltose, isomaltose] | − | ++ (a saccharide-transferred product was detected in an amount over ten percent through transfer reaction to acceptor) | ++ (a saccharide-transferred product was detected in an amount over ten percent through transfer reaction to acceptor) | − | + (a saccharide-transferred product was detected in an amount over one percent but less than 10% through transfer reaction to acceptor) | − | − | ++ (a saccharide-transferred product was detected in an amount over ten percent through transfer reaction to acceptor)
5 | OC[C@H]1O[C@H](O[C@H]2O[C@H](CO)[C@@H](O[C@H]3O[C@H](CO)[C@@H](O)[C@H](O)[C@H]3O)[C@H](O)[C@H]2O)[C@H](O)[C@@H](O)[C@@H]1O [Maltosyl glucoside, maltosyl glucoside] | ++ |  |  | ++ |  | ++ | ++ | 
6 | OC[C@H]1O[C@H](O[C@H]2C(O)O[C@H](CO)[C@@H](O)[C@@H]2O)[C@H](O)[C@@H](O)[C@@H]1O (stereo partly shown) [Kojibiose, kojibiose] | + |  |  | + |  | + | + | 
7 | maltoheptaose | +++ |  |  | +++ |  | +++ | +++ | 
8 | maltopentaose | +++ |  |  | +++ |  | +++ | +++ | 
9 | maltotriose | ++ |  |  | ++ |  | ++ | ++ | 
10 | OC[C@H]1O[C@H](O[C@H]2[C@H](O)[C@@H](O)[C@@H](O[C@H]3[C@H](O)[C@@H](O)[C@@H](O[C@H]4[C@H](O)[C@@H](O)C(O)O[C@@H]4CO)O[C@@H]3CO)O[C@@H]2CO)[C@H](O)[C@@H](O)[C@@H]1O (stereo partly shown) [Maltotetraose, maltotetraose] | +++ |  |  | +++ |  | +++ | +++ | 
11 | OC[C@H]1O[C@H](OC[C@H]2O[C@H](O[C@H]3[C@H](O)[C@@H](O)C(O)O[C@@H]3CO)[C@H](O)[C@@H](O)[C@@H]2O)[C@H](O)[C@@H](O)[C@@H]1O (stereo partly shown) [Panose, panose] | − |  |  | − |  | − | − | 
12 | OC[C@@H](O)[C@@H](O[C@H]1O[C@H](CO)[C@@H](O[C@H]2O[C@H](CO)[C@@H](O)[C@H](O)[C@H]2O)[C@H](O)[C@H]1O)[C@H](O)[C@@H](O)CO [Maltotriitol, maltotriitol] | + |  |  | + |  | + | + | 
